Measurements: PMC11945079, “Gadolinium Complex with Tris-Hydroxypyridinone as an Input for New Imaging Probes: Thermodynamic Stability, Molecular Modeling and Biodistribution” (Molecules, 2025)
Read-outs that look alike come from different tables or passages of the source. Blank lines part the entries; values can stand above or below the compound they belong to.

Tests used:
[1] = cited from earlier work; for pGd: pH 7.4
[2] = in water; cited from earlier work
[3] = Potentiometric titration of the ligand alone: protonation constants and species distribution; format: physicochemical
Method: (§1) All the studies were performed by potentiometric titrations of the ligand alone or in the presence of a 1:1 Gd/L stoichiometric ratio (Figure 1), which allowed for the determination of the protonation constants of KEMPPr(3,4-HP)3, as well as the stability constants of the formed Gd(III) complexes, from the best fitting of the experimental curves with the Hyperquad program (Table 1). Other Gd-to-ligand molar ratios were not considered in the present study, because it was admitted that species with a 1:2 stoichiometric ratio are present only at quite low concentrations for pH ca 7 [10].
The compound KEMPPr(3,4-HP)3 was synthesized according to the previously published procedure. The GdCl3 stock solution (9.8 × 10^−3 M) was prepared from the gadolinium salt in HCl 0.1 M medium to avoid hydrolysis, and standardized by inductively coupled plasma emission (ICP). The 0.1 M HCl solution used in the calibration of the glass electrode was obtained from a Titrisol ampoule (Merck, Darmstadt, Germany). The precise amount of HCl in the Gd(III) solution was determined by the standard-addition method using 0.1 M HCl (Titrisol). The titrant solution used in the potentiometric titrations was obtained from a carbonate-free 0.1 M KOH commercial ampoule (Titrisol) and standardized by titration with potassium hydrogen phthalate, and rejected whenever the percentage of carbonate (Gran’s method) was higher than 1% of the total amount of base. The potentiometric studies were performed with an automated potentiometric apparatus containing a Crison micropH 2002 millivoltimeter, a Crison microBu 2031 burette (Crison Instruments, Barcelona, Spain) and a Haake thermostatic bath (Haake Technik GmbH, Vreden, Germany, T = 25.0 ± 0.1 °C), controlled by the PASAT program. The glass and Ag/AgCl reference electrodes were previously conditioned in different DMSO/water mixtures of an increasing DMSO % composition (until 50%) and the response of the glass electrode was measured through the determination of the Nernst parameters by Gran’s method, obtained from strong acid–strong base (HCl/KOH) calibrations. […]
The stepwise protonation constants, Ki = [HiL]/[Hi−1L][H] of the ligand, and the global stability constants of the Gd(III) complex, β (GdmHhL) = [GdmHhLl]/[Gd]^m[H]^h[L]^l, were calculated by fitting the potentiometric data with the Hyperquad 2003 software. The gadolinium hydrolysis model and ionic product of water (Kw) were determined under the same experimental conditions (50% (w/w) DMSO/water medium, I = 0.1 M KCl, T = 25.0 ± 0.1 °C) and the values obtained for the stability constants (log β (GdH−2) = −15.17, log β (GdH−3) = −24.06) were included in the equilibrium model as well as the value of Kw (10^−14.95). […]

[4] = Potentiometric titration of the 1:1 Gd/L system: stability constants of the Gd(III) complexes, pGd, species distribution; format: physicochemical
Method: as §1
Analysis of the potentiometric titration curves (Figure 1), namely those obtained for the Gd(III)/KEMPPr(3,4-HP)3 system under 1:1 (Gd/L) stoichiometry, evidences a change in the deprotonation profile of the ligand due to its coordination to Gd (III). Since some precipitation was detected above pH = 6, the corresponding experimental points were not used in the calculations to obtain the Gd (III) complexation model. The obtained Gd(III) complexation model presents some similarities to that previously found for H3L2 (see Table 1), firstly involving the formation of a bis-chelated GdH4L^4+ species, a GdH2L^2+ tetra-chelated complex, and afterwards the formation of a neutral hexa-coordinated GdL species. […] Concerning the Gd(III)/H3L2 system (in water, CL = CGd = 3.2 × 10^−4 M), the Gd(III) complexation also begins at pH ca 2, and the GdL species forms at pH ca 3.7 and becomes dominant at pH 4.5 [11]. For the Gd (III)/NTP (PrHP)3 system (in water), the GdL species is not involved in the proposed model.
The compound KEMPPr(3,4-HP)3 was synthesized according to the previously published procedure. The GdCl3 stock solution (9.8 × 10^−3 M) was prepared from the gadolinium salt in HCl 0.1 M medium to avoid hydrolysis, and standardized by inductively coupled plasma emission (ICP). The 0.1 M HCl solution used in the calibration of the glass electrode was obtained from a Titrisol ampoule (Merck, Darmstadt, Germany). The precise amount of HCl in the Gd(III) solution was determined by the standard-addition method using 0.1 M HCl (Titrisol). The titrant solution used in the potentiometric titrations was obtained from a carbonate-free 0.1 M KOH commercial ampoule (Titrisol) and standardized by titration with potassium hydrogen phthalate, and rejected whenever the percentage of carbonate (Gran’s method) was higher than 1% of the total amount of base. The potentiometric studies were performed with an automated potentiometric apparatus containing a Crison micropH 2002 millivoltimeter, a Crison microBu 2031 burette (Crison Instruments, Barcelona, Spain) and a Haake thermostatic bath (Haake Technik GmbH, Vreden, Germany, T = 25.0 ± 0.1 °C), controlled by the PASAT program. The glass and Ag/AgCl reference electrodes were previously conditioned in different DMSO/water mixtures of an increasing DMSO % composition (until 50%) and the response of the glass electrode was measured through the determination of the Nernst parameters by Gran’s method, obtained from strong acid–strong base (HCl/KOH) calibrations.
Potentiometric titrations of compound KEMPPr(3,4-HP)3, in the absence or presence of Gd(III), were performed in 50% (w/w) DMSO/water medium at an ionic strength (I) of 0.1 M KCl, T = 25.0 ± 0.1 °C, using 0.1 M KOH titrant. Each titration was repeated three times, for which the total volume was 20 mL, the total concentration of ligand (CL) was 3.2 × 10^−4 M and the Gd^3+/KEMPPr(3,4-HP)3 molar ratios were 0:1 and 1:1.
The stepwise protonation constants, Ki = [HiL]/[Hi−1L][H] of the ligand, and the global stability constants of the Gd(III) complex, β (GdmHhL) = [GdmHhLl]/[Gd]^m[H]^h[L]^l, were calculated by fitting the potentiometric data with the Hyperquad 2003 software. […]

[5] = Literature Gd(III) complex stability constants and pGd of comparison ligands; format: physicochemical; settings: pH = 7, CL = 10^−5 M, CL/CGd = 10, from constants in water
[6] = in water, CL = CGd = 3.2 × 10^−4 M
[7] = physiological pH (7.4), 50% (w/w) DMSO/water
[8] = 50% w/w DMSO/water, CL = 3.2 × 10^−4 M, 1:1
[9] = 50% w/w DMSO/water, T = 25.0 ± 0.1 °C, I = 0.1 M KCl

Structure (SMILES): O=C(O)CN1CCN(CC(=O)O)CCN(CC(=O)O)CCN(CC(=O)O)CC1 [DOTA, 1,4,7,10-tetraazacyclododecane N,N′,N″,N‴-tetra-acetic acid]
pGd [1]: 20.4

Structure (SMILES): O=C(O)CN(CCN(CC(=O)O)CC(=O)O)CCN(CC(=O)O)CC(=O)O [DTPA, diethylenetriamine penta-acetic acid]
pGd [1]: 19.1

Structure (SMILES): Cc1c(O)c(=O)ccn1CCCNC(=O)CCC(CCC(=O)NCCCn1ccc(=O)c(O)c1C)(CCC(=O)NCCCn1ccc(=O)c(O)c1C)[N+](=O)[O-] [H3L2]
pH at which Gd(III) complexation begins [1, 6]: ~2
pH at which the GdL species becomes dominant [1, 6]: 4.5
pH at which the GdL species forms [1, 6]: ~3.7
log β (GdmHhLl), (m,h,l) = (1,0,1) (log KGdL) ([1]; in water): 21.22(5)
log β (GdmHhLl), (m,h,l) = (1,2,1) ([1]; in water): 30.03(6)
log β (GdmHhLl), (m,h,l) = (1,4,1) ([1]; in water): 37.74(4)
pGd (−log [Gd(III)]) ([1]; pH = 7, CL = 10^−5 M, CL/CGd = 10, in water): 14.3
difference between log K4 and log K5 [2]: 1.15

difference between log K2 and log K3 ([3]; 50% w/w DMSO/water): 1.1
composition of the solution: H3L species [3, 7]: 99.95%
composition of the solution: monocharged H4L^+ species [3, 7]: 0.05%
pH range of predominance of the neutral H3L species ([3]; species distribution, CL = 3.2 × 10^−4 M, 50% (w/w) DMSO/water): 3.4–9.9
pH at which Gd(III) complexation begins [4, 8]: ~2
pH at which the GdL complex becomes prevalent [4, 8]: 4.8
pH at which the neutral GdL complex begins to form [4, 8]: ~3.5
log β (GdmHhLl), (m,h,l) = (1,0,1) (log β GdL) [4, 9]: 26.59(8)
log β (GdmHhLl), (m,h,l) = (1,1,1) [4, 9]: 31.30(4)
log β (GdmHhLl), (m,h,l) = (1,2,1) [4, 9]: 35.17(7)
log β (GdmHhLl), (m,h,l) = (1,4,1) [4, 9]: 41.35(8)
log β (GdmHhLl), (m,h,l) = (1,0,1) (log β GdL) ([4]; 50% w/w DMSO/water, T = 25.0 ± 0.1 °C, I = 0.1 M KCl, listed as H3L): 26.59
pGd (−log [Gd(III)]) ([4]; pH = 6, CL = 10^−5 M, CL/CGd = 10, 50% w/w DMSO/water): 13.2
Structure (SMILES): Cc1c(O)c(=O)ccn1CCCNC(=O)C1(C)CC(C)(C(=O)NCCCn2ccc(=O)c(O)c2C)CC(C)(C(=O)NCCCn2ccc(=O)c(O)c2C)C1 (centres unmarked) [KEMPPr(3,4-HP)3]

pGd (−log [Gd(III)]) [5]: 12.3
Structure (SMILES): Cc1c(O)c(=O)ccn1CCCNC(=O)CCN(CCC(=O)NCCCn1ccc(=O)c(O)c1C)CCC(=O)NCCCn1ccc(=O)c(O)c1C [NTP(PrHP)3]
log β (GdmHhLl), (m,h,l) = (1,1,1) (log KGdHL) ([1]; in water): 26.35
log β (GdmHhLl), (m,h,l) = (1,2,1) ([1]; in water): 31.16
log β (GdmHhLl), (m,h,l) = (1,3,1) ([1]; in water): 35.69
log β (GdmHhLl), (m,h,l) = (1,3,2) ([1]; in water): 52.3
log β (GdmHhLl), (m,h,l) = (1,4,1) ([1]; in water): 39.46
log β (GdmHhLl), (m,h,l) = (1,5,1) ([1]; in water): 42.8
log β (GdmHhLl), (m,h,l) = (1,5,2) ([1]; in water): 65.3

Structure (SMILES): Cn1ccc(C(=O)NCCN(CCNC(=O)c2ccn(C)c(=O)c2O)CCNC(=O)c2ccn(C)c(=O)c2O)c(O)c1=O [TREN-1-Me-3,2-HOPO]
log KGdL (thermodynamic stability of the Gd(III) complex) [1]: 19.2
